Measurements published in patent US9314024B2, “Herbicidal compositions comprising aminopyralid and bentazon” (Dow AgroSciences LLC, priority 2012, dated 2016).

What was measured:
Assay in all cases: Postemergence herbicidal activity, field trial in rice, Espinal, Colombia
Conditions in all cases: 29 DAA, postemergence foliar
[1] = system: Corchorus spp (jute, CRGSS); format: in vivo, Corchorus sp
Procedure: (§1) These trials were conducted under field conditions in Espinal, Colombia. Trial sites were located in commercially grown fields of common rice (Oryza sativa). The rice crop was grown using normal cultural practices for fertilization, seeding, and maintenance to ensure good growth of the crop and the weeds. The trials were conducted using normal research methodology. Trial plots were 2 meters (m) wide by 5 m long. All treatments were applied using a randomized complete block trial design with 4 replications per treatment. The trial sites had naturally occurring populations of weeds. The weed spectrum included, but was not limited to, Cyperus iria L. (rice flatsedge, CYPIR), Phyllanthus niruri L. (gripeweed, PYLNI) and Corchorus spp (jute, CRGSS). The plots were treated with a postemergence foliar application 19 days after emergence of the rice.
(§2) Treatments consisted of tank mixes of aminopyralid triisopropanolammonium salt (MILESTONE 240SL) and commercially available formulations of bentazon herbicide (BASAGRAN 480SL). The application volume was 200 liters per hectare (L/ha) of water. All application were made using precision gas hand sprayers with a 2 m boom using flat fan (8002) nozzles to broadcast the treatments over the top of the rice and weeds.
(§3) The treated plots and control plots were rated blind at various intervals after application. Ratings were based on Percent (%) Visual weed control, where 0 corresponds to no injury and 100 corresponds to complete kill.
(§4) Colby's equation was used to determine the herbicidal effects expected from the mixtures (Colby, S. R. Calculation of the synergistic and antagonistic response of herbicide combinations. Weeds 1967 15, 20-22).
(§5) The following equation was used to calculate the expected activity of mixtures containing two active ingredients, A and B: Expected=A+B−(A×B/100)
(§6) A=observed efficacy of active ingredient A at the same concentration as used in the mixture;
(§7) B=observed efficacy of active ingredient B at the same concentration as used in the mixture.

[2] = system: Cyperus iria L. (rice flatsedge, CYPIR); format: in vivo
Procedure: as §1, §2, §3, §4, §5, §6, §7

[3] = system: Phyllanthus niruri L. (gripeweed, PYLNI); format: in vivo
Procedure: as §1, §2, §3, §4, §5, §6, §7

| Compound | Visual Weed Control (%) CRGSS Obs ([1]; bentazon 180 g ai/ha alone) | Visual Weed Control (%) CYPIR Obs ([2]; bentazon 180 g ai/ha alone) | Visual Weed Control (%) PYLNI Obs ([3]; bentazon 180 g ai/ha alone) | Visual Weed Control (%) CRGSS Obs ([1]; aminopyralid 4 g ae/ha alone) | Visual Weed Control (%) CRGSS Obs ([1]; aminopyralid 8 g ae/ha alone) | Visual Weed Control (%) CYPIR Obs ([2]; aminopyralid 4 g ae/ha alone) | Visual Weed Control (%) CYPIR Obs ([2]; aminopyralid 8 g ae/ha alone) | Visual Weed Control (%) CYPIR Obs ([2]; aminopyralid 16 g ae/ha alone) | Visual Weed Control (%) PYLNI Obs ([3]; aminopyralid 4 g ae/ha alone) | Visual Weed Control (%) PYLNI Obs ([3]; aminopyralid 8 g ae/ha alone) | Visual Weed Control (%) PYLNI Obs ([3]; aminopyralid 16 g ae/ha alone) |
| --- | --- | --- | --- | --- | --- | --- | --- | --- | --- | --- | --- |
| CC(C)N1C(=O)c2ccccc2NS1(=O)=O [Bentazon, 3-(1-methylethyl)-1H-2,1,3-benzothiadiazin-4(3H)-one 2,2-dioxide] | 80% | 74% | 19% |  |  |  |  |  |  |  |  |
| Nc1cc(Cl)nc(C(=O)O)c1Cl [Aminopyralid, 4-amino-3,6-dichloro-2-pyridinecarboxylic acid] |  |  |  | 48% | 70% | 0% | 0% | 41% | 0% | 0% | 0% |
